Assay results as given in paper PMC9268560, “Design, Synthesis, In Silico and In Vitro Studies of New Immunomodulatory Anticancer Nicotinamide Derivatives Targeting VEGFR-2” (Molecules, 2022).
Read-outs that look alike come from different tables or passages of the source.

Experiments:
HepG2 = assay: In vitro anti-proliferative activity (MTT assay), HepG2; conditions: for Selectivity index (SI) (HepG2): cytotoxicity against Vero cells/cytotoxicity against HepG2
HCT-116 = assay: In vitro anti-proliferative activity (MTT assay), HCT-116; conditions: for Selectivity index (SI) (HCT-116): Cytotoxicity against Vero cells/cytotoxicity against HCT-116
Vero cell lines = assay: In vitro viability test (MTT) on non-cancerous Vero cell lines; type: cell-based; conditions: non-cancerous model, read-out: Cytotoxicity Against Vero Cell Lines (IC50)
Excerpt: (§1) An in-vitro viability test was used to investigate the safety patterns of the tested compounds at different concentrations. The Vero cell lines were used as a non-cancerous model to investigate the safety of the targeted compounds. […] Such values are very high in comparison to the corresponding values on the cancer cell lines, which reflect the high in vitro safety profiles of the tested members towards the examined non-cancerous cell lines (Table 2).

human VEGFR-2 = human VEGFR-2 (Homo sapiens, UniProt P35968); assay: In vitro VEGFR-2 enzyme inhibition assay (Human VEGFR-2 ELISA kit)
[1] = In vitro viability test (MTT) on non-cancerous Vero cell lines; type: cell-based; conditions: African green monkey, Vero cells (non-cancerous), non-cancerous model, read-out: Cytotoxicity Against Vero Cell Lines (IC50)
Excerpt: as §1

HCT-116 cells [2] = assay: Flow cytometry analysis for cell cycle (PI staining); type: cell-based, human; conditions: HCT-116, 5.4 µM, 24 h
HCT-116 cells [3] = assay: Flow cytometry analysis for apoptosis (Annexin V and PI double staining); type: cell-based, human; conditions: HCT-116, 5.4 µM, 24 h
TNF-α = TNF-α level in treated HCT-116 cells (qRT-PCR); type: cell-based; conditions: Homo sapiens; HCT-116, 5.4 µM, 24 h; control 82.47
IL-6 = IL-6 level in treated HCT-116 cells (qRT-PCR); type: cell-based, human; conditions: HCT-116, 5.4 µM, 24 h
Bax = Bax expression level in treated HCT-116 cells (qRT-PCR); conditions: HCT-116, 5.4 µM, 24 h
Bcl-2 = Bcl-2 expression level in treated HCT-116 cells (qRT-PCR); conditions: HCT-116, 5.4 µM, 24 h
caspase-8 = assay: Caspase-8 expression level in treated HCT-116 cells (qRT-PCR); conditions: HCT-116, 5.4 µM, 24 h
[4] = Homo sapiens, HepG2, read-out: Cytotoxicity IC50 HepG2
[5] = Homo sapiens, HCT-116, read-out: Cytotoxicity IC50 HCT-116

Chain of human VEGFR-2 (P35968 20-1356): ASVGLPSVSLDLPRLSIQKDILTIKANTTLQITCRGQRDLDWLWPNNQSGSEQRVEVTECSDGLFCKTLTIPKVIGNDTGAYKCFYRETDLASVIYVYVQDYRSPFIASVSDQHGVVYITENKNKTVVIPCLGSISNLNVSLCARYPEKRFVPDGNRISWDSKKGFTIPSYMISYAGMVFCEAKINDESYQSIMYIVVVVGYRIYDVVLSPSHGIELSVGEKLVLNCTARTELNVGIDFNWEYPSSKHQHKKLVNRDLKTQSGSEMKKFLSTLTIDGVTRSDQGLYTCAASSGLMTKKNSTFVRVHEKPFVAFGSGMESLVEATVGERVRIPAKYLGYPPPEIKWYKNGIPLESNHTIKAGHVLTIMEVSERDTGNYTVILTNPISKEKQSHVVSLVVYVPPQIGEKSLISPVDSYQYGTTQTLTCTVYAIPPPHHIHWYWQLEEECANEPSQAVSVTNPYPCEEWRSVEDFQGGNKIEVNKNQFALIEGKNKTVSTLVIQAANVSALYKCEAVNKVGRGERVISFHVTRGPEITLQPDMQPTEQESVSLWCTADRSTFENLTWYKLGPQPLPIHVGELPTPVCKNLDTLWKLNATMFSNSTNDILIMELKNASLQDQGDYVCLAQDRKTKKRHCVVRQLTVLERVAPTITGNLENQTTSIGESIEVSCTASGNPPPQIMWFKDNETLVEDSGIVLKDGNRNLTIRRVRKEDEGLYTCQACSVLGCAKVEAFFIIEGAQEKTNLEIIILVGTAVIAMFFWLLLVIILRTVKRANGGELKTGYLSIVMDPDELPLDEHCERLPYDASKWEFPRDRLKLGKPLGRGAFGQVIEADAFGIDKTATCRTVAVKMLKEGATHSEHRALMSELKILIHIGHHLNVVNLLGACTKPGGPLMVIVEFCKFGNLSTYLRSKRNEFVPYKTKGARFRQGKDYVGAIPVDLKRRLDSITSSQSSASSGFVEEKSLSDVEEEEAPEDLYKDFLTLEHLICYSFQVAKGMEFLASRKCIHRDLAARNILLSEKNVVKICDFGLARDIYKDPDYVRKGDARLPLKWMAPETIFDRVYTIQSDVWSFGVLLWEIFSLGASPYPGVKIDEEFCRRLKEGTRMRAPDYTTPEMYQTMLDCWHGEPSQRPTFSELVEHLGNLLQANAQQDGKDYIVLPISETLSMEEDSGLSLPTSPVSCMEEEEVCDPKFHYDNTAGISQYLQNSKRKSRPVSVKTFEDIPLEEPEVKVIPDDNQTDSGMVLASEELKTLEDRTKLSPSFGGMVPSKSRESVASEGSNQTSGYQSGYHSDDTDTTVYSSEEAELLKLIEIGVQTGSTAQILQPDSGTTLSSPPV

Compound | IC50 (HepG2; [4]) [µM] | IC50 (HCT-116; [5]) [µM] | Selectivity index (SI) (HepG2) (HepG2) | Selectivity index (SI) (HCT-116) (HCT-116) | IC50 [1] [µM] | IC50 (human VEGFR-2) [µM] | also measured
CNC(=O)c1cc(Oc2ccc(NC(=O)Nc3ccc(Cl)c(C(F)(F)F)c3)cc2)ccn1 [Sorafenib, sorafenib, reference compound] | 7.4 ± 0.235 | 9.3 ± 0.201 |  |  |  |  | 
(E)-N-(4-(1-(2-(2,6-Dinitrophenyl)hydrazono)ethyl)phenyl)nicotinamide [Compound 12] |  |  | 5.45 | 5.24 |  |  | IC50 (Vero cell lines): 95.4 µM; IC50 (HepG2; read-out: Cytotoxicity IC50 HepG2, MTT, mean ± S.D. of three separate experiments): 17.5 ± 0.058 µM; IC50 (HCT-116; read-out: Cytotoxicity IC50 HCT-116, MTT, mean ± S.D. of three separate experiments): 18.2 ± 0.06 µM; IC50 (human VEGFR-2; read-out: VEGFR-2 IC50, mean ± S.D. of three separate experiments): 0.115 ± 0.00733 µM
CC(=NNC(N)=S)c1ccc(NC(=O)c2cccnc2)cc1 [Compound 11, N-(4-(1-(2-Carbamothioylhydrazono)ethyl)phenyl)nicotinamide] | 20.3 ± 0.064 | 25.07 ± 0.07 | 5.19 | 4.20 | 105 | 0.0834 ± 0.00553 | 
CN(C)c1ccc(/C=C/C=N/NC(=O)c2ccc(NC(=O)c3cccnc3)cc2)cc1 [Compound 8, N-(4-(2-((1E,2E)-3-(4-(Dimethylamino)phenyl)allylidene)hydrazine-1-carbonyl)phenyl)nicotinamide] | 7.1 ± 0.03 | 5.4 ± 0.02 | 12.01 | 15.79 | 85.2 | 0.077 ± 0.00425 | Augmentation of G0–G1 phase vs control (HCT-116 cells [2]): 1.42 fold; Decline of cell population at G2/M phase vs control (HCT-116 cells [2]): 2.11 fold; Cell Cycle Distribution %G2-M (HCT-116 cells [2]; control 27.29): 12.91%; Cell Cycle Distribution % S (HCT-116 cells [2]; control 33.75): 31.47%; Cell Cycle Distribution %G0-G1 (HCT-116 cells [2]; control 38.96): 55.62%; Cell Cycle Distribution %Pre-G1 (HCT-116 cells [2]; control printed 19.82): 3.05%; Increase in total apoptosis vs control (HCT-116 cells [3]): 6.5 fold; Necrosis (HCT-116 cells [3]; control 0.62): 1.85%; Apoptosis Early (HCT-116 cells [3]; control 0.7): 3.74%; Apoptosis Late (HCT-116 cells [3]; control 1.73): 14.23%; Apoptosis Total (HCT-116 cells [3]; control 3.05): 19.82%; inhibition at 5.4 µM (TNF-α): 92.4%; Effect on the level of IL-6 (in words) (IL-6): non-significant reduction; inhibition at 5.4 µM (IL-6; Homo sapiens, control 93.15): 94.1%; Increase in Bax level vs control cells (Bax): 9.2 fold; Bax expression level (Bax; control 42.19): 387.26 pg/mL; Decrease in Bcl-2 level vs control cells (Bcl-2): 3 fold; Bcl-2 expression level (Bcl-2; control 5.603): 1.844 pg/mL; Increase in caspase-8 level vs control cells (caspase-8): 9.4 fold; Caspase-8 expression level (caspase-8; control 50.317): 472.3 pg/mL
COc1ccc(/C=N/NC(=O)c2ccc(NC(=O)c3cccnc3)cc2)cc1OC [Compound 7, (E)-N-(4-(2-(3,4-Dimethoxybenzylidene)hydrazine-1-carbonyl)phenyl)-nicotinamide] | 18.8 ± 0.061 | 19.2 ± 0.062 | 6.80 | 6.66 | 128 | 0.113 ± 0.00723 | 
O=C(N/N=C/c1ccc(Cl)cc1Cl)c1ccc(NC(=O)c2cccnc2)cc1 [Compound 6, (E)-N-(4-(2-(2,4-Dichlorobenzylidene)hydrazine-1-carbonyl)phenyl)-nicotinamide] | 16.5 ± 0.057 | 17.8 ± 0.059 | 5.13 | 4.76 | 84.7 | 0.172 ± 0.0102 | 
